According to US12173088B2, “Anti-microbial peptides” (priority 2018, dated 2024):
Peptide text beside a SMILES is read from it.

Experiments:
K. pneumoniae ATCC 13883 = format: cell-based, Klebsiella pneumoniae; details: ATCC 13883
Method in brief: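 Broth microdilution in tryptic soy broth: log-phase cultures (OD600 ≈0.5) diluted to OD600 0.001, given two-fold peptide dilutions, incubated overnight at 37° C. Growth read at 630 nm.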

in vivo = experiment: in vivo
Procedure: The efficacy of the two peptides was also investigated in non-neutropenic mice against S. aureus USA300. A higher bacterial inoculum at 2×10^8 CFU per mouse was used. […] To evaluate the peptide pharmacokinetics (Chhonker, et al. (2018) Biomed. Chromatogr. e4389), the plasma clearance rate of horine after intravenous injection of 10 mg/kg into BALB/c mice was followed.

[1] = system: S. aureus USA300 biofilms; details: 25 μM; 24 hour formed static biofilms
Procedure: The antibiofilm activity of the peptide against 24 hours established biofilms was evaluated. In short, S. aureus USA300 (10^5 CFU/mL) was made from exponential phase bacteria in TSB media and 200 μL was distributed to each well of the microtiter plate (Corning Costar Cat No. 3595). The plates were incubated at 37° C. for 24 hours to form biofilm. Culture treated with water served as a positive control while media without bacterial inoculation served as the negative control. Media was then pipetted out and the attached biofilms were washed with 1×PBS to remove the planktonic bacteria. Each well of the plate was then filled with 20 μL of 10× peptide solution and 180 μL of fresh TSB media and the plates were further incubated at 37° C. for 24 hours. Media was then pipetted out and the wells were washed with 1×PBS to remove planktonic cells. Live cells in the biofilms were then quantitated using XTT [2,3-bis(2-methyloxy-4-nitro-5-sulfophenyl)-2H-tertazolium-5-carboxanilide] assay by following the manufacturer's instructions with modifications. 180 μL of fresh TSB and 20 μL of XTT solution was added to each well and the plates were again incubated at 37° C. for 2 hours. Absorbance at 450 nm (only media with XTT containing wells served as the blank) was obtained using a ChroMate® microtiter plate reader. […]

SMILES | MIC K. pneumonia ATCC 13883 (K. pneumoniae ATCC 13883) [µM] | Time to become undetectable in plasma (in vivo; 10 mg/kg i.v.) [h] | level at 5 min (in vivo; BALB/c, mouse, plasma, iv, 10 mg/kg) [ng/mL] | S. aureus killed in biofilms [1] [%]
CC(C)C[C@H](NC(=O)[C@H](Cc1c[nH]c2ccccc12)NC(=O)[C@H](Cc1c[nH]c2ccccc12)NC(=O)[C@@H](N)Cc1c[nH]c2ccccc12)C(=O)N[C@@H](CCCNC(=N)N)C(=O)N[C@@H](CCCNC(=N)N)C(=O)N[C@@H](CCCNC(=N)N)C(=O)N[C@@H](Cc1c[nH]c2ccccc12)C(N)=O [Horine, WWWLRRRW] (H-WWWLRRRW-NH2; N-terminus and C-terminus assumed) | >25 | ≤ 1 | 266 | –
CC(C)C[C@H](NC(=O)[C@H](CC(C)C)NC(=O)[C@H](CCCCN)NC(=O)[C@H](CC(C)C)NC(=O)CNC(=O)[C@H](CC(C)C)NC(=O)[C@H](CO)NC(=O)[C@H](CC(C)C)NC(=O)[C@H](CC(C)C)NC(=O)[C@H](CC(C)C)NC(=O)[C@H](CCCCN)NC(=O)[C@H](CC(C)C)NC(=O)CN)C(N)=O [DFT561, GLKLLLSLGLKLL] (H-GLKLLLSLGLKLL-NH2; N-terminus and C-terminus assumed) | – | – | – | 60
